Laboratory results published in ChEMBL document CHEMBL1201862, “PubChem BioAssay data set” (2004).
Active and inactive are the calls of the source.

Experiments:
[1] = biological target: T1, Scavenger receptor class B member 1 (Mus musculus, UniProt Q61009); assay: mouse SR-BI DiI-HDL transfer blockers – ldlA[mSR-BI] CHO cells, fluorescence plate reader, dry powder, set 9, dose response (AID 623880); type: functional, cell-based
[2] = biological target: T1, Scavenger receptor class B member 1; assay: blockers of DiI-HDL lipid transfer via SR-BI – cell-based, ldlA[mSR-BI] CHO, DiI fluorescence, dry powder, set 10, dose response (AID 624029); type: functional
[3] = mouse embryonic fibroblast toxicity – cell-based, plate reader, dry powder, set 2, cytotoxicity control, dose response (AID 652280); type: functional; details: NIH3T3
[4] = mouse fibroblast viability loss – cell-based, dry powder samples, cytotoxicity control, dose response (AID 651844); type: functional; details: NIH3T3
[5] = biological target: T2, Nuclear receptor subfamily 0 group B member 1 (Homo sapiens, UniProt P51843); assay: Luminescence-based cell-based high throughput dose response assay for inhibitors of the orphan nuclear receptor subfamily 0, group B, member 1 (DAX1; NR0B1). [Related pubchem assays (depositor defined):AID504766, AID504790]; type: functional
T2 sequence (P51843 whole entry): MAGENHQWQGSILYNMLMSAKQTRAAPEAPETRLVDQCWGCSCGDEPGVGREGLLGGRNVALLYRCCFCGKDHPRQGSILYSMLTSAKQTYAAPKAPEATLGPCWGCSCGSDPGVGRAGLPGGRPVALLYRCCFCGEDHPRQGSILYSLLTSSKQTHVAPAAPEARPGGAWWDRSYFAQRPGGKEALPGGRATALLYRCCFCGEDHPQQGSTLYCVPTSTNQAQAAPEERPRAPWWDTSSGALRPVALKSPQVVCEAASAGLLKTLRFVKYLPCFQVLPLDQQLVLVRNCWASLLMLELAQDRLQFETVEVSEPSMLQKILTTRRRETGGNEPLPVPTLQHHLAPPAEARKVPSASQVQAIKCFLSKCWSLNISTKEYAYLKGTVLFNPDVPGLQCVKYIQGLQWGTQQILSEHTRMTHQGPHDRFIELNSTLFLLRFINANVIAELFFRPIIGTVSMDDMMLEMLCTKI

[6] = rescue of ΔF508 CFTR function, airway epithelium – human bronchial epithelial cells, plate reader, cherry-pick, two tests, dose response (AID 743267); type: functional, cell-based
[7] = viability loss in human hepatoma cells – cell-based, CellTiter-Glo luminescence, cherry-pick, set 2, cytotoxicity control, dose response (AID 743395); type: functional
[8] = viability loss in HepG2 hepatoma cells – cell-based, ATP luminescence, cherry-pick, activator set 2, cytotoxicity control, dose response (AID 1053143); type: functional
[9] = biological target: T2, Nuclear receptor subfamily 0 group B member 1; type: functional, cell-based
[10] = Luminescence-based cell-based high throughput dose response assay to identify activators of the DAF-12 from the parasite S. stercoralis (ssDAF-12).; type: functional
cells [11] = type: functional, cell-based
[12] = biological target: Potassium channel subfamily K member 9 (Homo sapiens, UniProt Q9NPC2); assay: KCNK9 flux blockade, concentration-response – cell-based, FluxOR thallium flux, selectivity assay for TASK1 inhibitor project, SAR follow-up (AID 652211); type: functional;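 note: potency is for inhibitors of the channel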
[13] = biological target: Potassium channel subfamily K member 3 (Rattus norvegicus, UniProt O54912); assay: SAR analysis for the identification of selective inhibitors of the two-pore domain potassium channel TASK1(KCNK3):Automated Electrophysiology.; type: functional
[14] = biological target: T3, Trace amine-associated receptor 1 (Homo sapiens, UniProt Q96RJ0); assay: Counterscreen for agonists of the human trace amine associated receptor 1 (hTAAR1): Fluorescence-based cell-based high throughput dose response assay to identify hTAAR1 agonist that also desensitize TAAR1 receptor response.; type: functional
[15] = biological target: T3, Trace amine-associated receptor 1; assay: Fluorescence-based cell-based high throughput dose response assay to identify agonists of the human trace amine associated receptor 1 (TAAR1).; type: functional
cells [16] = type: functional, cell-based; remark: listed apart in the source
cells [17] = type: functional, cell-based; remark: listed apart in the source
[18] = T. cruzi growth inhibition in host cells, dose response, cell-based, plate reader, dry powder, set 2 (AID 652275); type: functional
[19] = HEK293T viability loss – cell-based, ATP luminescence, dry powder, Set6, cytotoxicity control, dose response (AID 743142); type: functional; details: HEK293
[20] = viability loss in A549 lung cancer cells – cell-based, CellTiter-Glo luminescence, dry powder, set 3, cytotoxicity control, dose response (AID 743146); type: functional

T1 sequence (Q61009 whole entry): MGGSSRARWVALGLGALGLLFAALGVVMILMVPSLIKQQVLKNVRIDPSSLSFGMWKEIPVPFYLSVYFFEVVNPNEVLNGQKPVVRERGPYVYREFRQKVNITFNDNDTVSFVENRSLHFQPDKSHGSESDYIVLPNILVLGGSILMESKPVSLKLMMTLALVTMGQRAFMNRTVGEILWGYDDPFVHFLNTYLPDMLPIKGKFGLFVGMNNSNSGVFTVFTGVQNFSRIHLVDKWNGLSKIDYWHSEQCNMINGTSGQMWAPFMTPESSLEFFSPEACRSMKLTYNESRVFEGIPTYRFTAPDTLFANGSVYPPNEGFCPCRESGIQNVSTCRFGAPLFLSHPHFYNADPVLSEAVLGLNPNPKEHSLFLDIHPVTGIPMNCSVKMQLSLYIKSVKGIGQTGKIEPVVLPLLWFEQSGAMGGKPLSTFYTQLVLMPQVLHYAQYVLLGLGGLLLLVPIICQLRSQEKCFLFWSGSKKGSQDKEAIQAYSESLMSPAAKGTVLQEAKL
T3 sequence (Q96RJ0 whole entry): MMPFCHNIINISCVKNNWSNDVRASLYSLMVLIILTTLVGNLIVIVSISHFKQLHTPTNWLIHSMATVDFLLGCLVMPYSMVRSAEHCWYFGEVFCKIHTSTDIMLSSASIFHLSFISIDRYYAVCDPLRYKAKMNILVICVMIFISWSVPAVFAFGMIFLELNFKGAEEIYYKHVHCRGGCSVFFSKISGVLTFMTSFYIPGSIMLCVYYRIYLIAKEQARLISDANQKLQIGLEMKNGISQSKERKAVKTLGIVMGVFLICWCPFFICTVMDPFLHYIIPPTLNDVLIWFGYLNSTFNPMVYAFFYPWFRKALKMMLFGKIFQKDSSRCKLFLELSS
Sequence of Potassium channel subfamily K member 9 (Q9NPC2 whole entry, the tested form may be a part): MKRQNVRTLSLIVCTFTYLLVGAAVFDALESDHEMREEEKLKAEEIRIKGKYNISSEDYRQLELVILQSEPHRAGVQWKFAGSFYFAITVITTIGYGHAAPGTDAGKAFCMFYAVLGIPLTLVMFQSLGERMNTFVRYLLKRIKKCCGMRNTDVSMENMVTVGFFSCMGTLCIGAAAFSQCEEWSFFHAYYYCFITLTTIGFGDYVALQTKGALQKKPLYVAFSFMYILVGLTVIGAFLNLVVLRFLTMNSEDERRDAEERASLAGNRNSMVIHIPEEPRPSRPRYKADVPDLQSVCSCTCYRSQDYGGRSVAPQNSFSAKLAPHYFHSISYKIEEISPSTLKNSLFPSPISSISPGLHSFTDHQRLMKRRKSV
Sequence of Potassium channel subfamily K member 3 (O54912 whole entry, the tested form may be a part): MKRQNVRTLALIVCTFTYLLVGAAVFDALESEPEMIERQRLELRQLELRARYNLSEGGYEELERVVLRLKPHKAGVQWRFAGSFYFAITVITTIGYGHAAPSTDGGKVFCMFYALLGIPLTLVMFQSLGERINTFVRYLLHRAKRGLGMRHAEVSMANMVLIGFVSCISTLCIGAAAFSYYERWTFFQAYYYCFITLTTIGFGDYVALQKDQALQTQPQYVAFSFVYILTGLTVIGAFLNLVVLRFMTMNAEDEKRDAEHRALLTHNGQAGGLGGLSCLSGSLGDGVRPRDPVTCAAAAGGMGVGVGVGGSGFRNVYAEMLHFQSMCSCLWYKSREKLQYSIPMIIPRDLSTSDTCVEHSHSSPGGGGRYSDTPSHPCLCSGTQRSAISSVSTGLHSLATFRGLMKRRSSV

With `C[C@@H]1CN([C@H](C)CO)C(=O)c2cc(NC(=O)C3CCCCC3)ccc2O[C@H]1CN(C)S(=O)(=O)c1ccc(Cl)cc1` the AC50 [1] was 0.0686 µM (active) and the AC50 [2] was 0.0616 µM (active).

With `CC(C)N1C[C@H](C)[C@@H](CN(C)Cc2ccc(Oc3ccccc3)cc2)Oc2c(NC(=O)C3CCN(C)CC3)cccc2C1=O` the AC50 [3] was 8.58 µM (active) and the AC50 [4] was 8.58 µM (active).

In the case of `O=C(CCCCCCC(=O)Nc1ccccc1)NO` [VORINOSTAT], the IC50 [5] is reported as > 67.6 µM (inactive), the AC50 [6] is reported as 0.933 µM (active) and the AbsAC35_uM [7] is reported as 0.468 µM. For the same molecule, the AC50 [8] was 1.75 µM (active) and the IC50 [9] was 0.747 µM (active).

With `C(=Cc1c[nH]c2ccccc12)c1ccc2ccccc2n1` the IC50 [10] was > 67.5 µM (inactive), the IC50 (cells [11]) was > 67.5 µM (inactive) and the IC50 [9] was 10.3 µM (inactive).

With `COc1ccccc1C(=O)Nc1cccc(NC(=O)c2ccccc2OC)c1` the IC50 [12] was 3.62 µM (active) and the IC50 [13] was 0.03 µM (active).

With `CN1CCNC(=O)C1CC(=O)NCCc1ccccc1F` (stereo unspecified) the IC50 [14] was 6.6 µM (active), the EC50 [15] was 2.49 µM (active) and the EC50 (cells [16]) was > 29.9 µM (inactive). The IC50 (cells [17]) was > 29.9 µM (inactive).

With `CN(C)C(=O)c1cccc(-c2ccc([C@H]3[C@@H](CO)N4CCCCN(C(=O)C5CCC5)C[C@@H]34)cc2)c1` the AC50 [18] was 1.06 µM (active).

For `O=C(CCNC(=O)c1ccc(Cl)c(Cl)c1)N[C@@H]1CCCc2ccccc21`, the AC50 [19] was 3.34 µM (active) and the AC50 [20] was 26 µM (active).
